In the supplement of paper PMC10307832:

Assays:
Assay in all cases: relative viability (nuclei count vs DMSO), 5 days (fraction); higher = more cells survive
[1] = compound: C1CN(CCN1)C2=CC=C(C=C2)C3=CN4C(=C(C=N4)C5=CC=NC6=CC=CC=C56)N=C3 [DM3189] + C[C@]1(O)C[C@@H](c2nc(-c3ccc4ccc(-c5ccccc5)nc4c3)c3c(N)nccn32)C1 [Linsitinib] (partner 1 µM)
Outline: (§1)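 Each reported value is a median over duplicate plates. It expresses relative viability: treated-well nuclei count divided by vehicle-well nuclei count. Lung cancer cell lines in 1536-well plates were dosed by pin tool a day after seeding, alone with one drug or with a fixed anchor-drug dose plus five library-drug doses (not always all listed) in √10 steps, and nuclei were counted after 5 days.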

[2] = compound: C1CN(CCN1)C2=CC=C(C=C2)C3=CN4C(=C(C=N4)C5=CC=NC6=CC=CC=C56)N=C3 [DM3189] + O=C(c1cc(Cc2n[nH]c(=O)c3ccccc23)ccc1F)N1CCN(C(=O)C2CC2)CC1 [Olaparib] (partner 8 µM)
Outline: as §1

[3] = compound: C1CN(CCN1)C2=CC=C(C=C2)C3=CN4C(=C(C=N4)C5=CC=NC6=CC=CC=C56)N=C3 [DM3189] + O=C(CCCCCCC(=O)Nc1ccccc1)NO [Vorinostat] (partner 1 µM)
Outline: as §1

[4] = compound: C1CN(CCN1)C2=CC=C(C=C2)C3=CN4C(=C(C=N4)C5=CC=NC6=CC=CC=C56)N=C3 [DM3189] + Cc1nc(Nc2ncc(C(=O)Nc3c(C)cccc3Cl)s2)cc(N2CCN(CCO)CC2)n1 [Dasatinib] (partner 0.075 µM)
Outline: as §1

[5] = compound: C1CN(CCN1)C2=CC=C(C=C2)C3=CN4C(=C(C=N4)C5=CC=NC6=CC=CC=C56)N=C3 [DM3189] + Cc1cc(Nc2cc(N3CCN(C)CC3)nc(Sc3ccc(NC(=O)C4CC4)cc3)n2)n[nH]1 [Tozasertib] (partner 0.1 µM)
Outline: as §1

Row | Cell Line | relative viability ([1]; first compound 0.08 µM) | relative viability ([1]; first compound 0.253 µM) | relative viability ([1]; first compound 0.8 µM) | relative viability ([1]; first compound 2.53 µM) | relative viability ([2]; first compound 0.08 µM) | relative viability ([2]; first compound 0.253 µM) | relative viability ([2]; first compound 0.8 µM) | relative viability ([2]; first compound 2.53 µM) | relative viability ([3]; first compound 0.08 µM) | relative viability ([3]; first compound 0.253 µM) | relative viability ([3]; first compound 0.8 µM) | relative viability ([3]; first compound 2.53 µM) | relative viability ([4]; first compound 0.08 µM) | relative viability ([4]; first compound 0.253 µM) | relative viability ([4]; first compound 0.8 µM) | relative viability ([4]; first compound 2.53 µM) | relative viability ([5]; first compound 0.08 µM) | relative viability ([5]; first compound 0.253 µM) | relative viability ([5]; first compound 0.8 µM) | relative viability ([5]; first compound 2.53 µM)
1 | NCI-H23 | 0.649 | 0.588 | 0.445 | 0.742 | 0.253 | 0.305 | 0.233 | 0.294 | 0.668 | 0.51 | 0.564 | 0.539 | 0.878 | 0.713 | 0.716 | 0.749 | 0.291 | 0.389 | 0.296 | 0.376
2 | NCI-H322M | 0.891 | 0.863 | 0.921 | 0.977 | 0.938 | 0.793 | 0.743 | 0.768 | 0.97 | 0.874 | 0.783 | 0.791 | 0.268 | 0.251 | 0.235 | 0.218 | 0.481 | 0.427 | 0.448 | 0.404
3 | NCI-H358 | 0.766 | 0.646 | 0.71 | 0.584 | 0.7 | 0.539 | 0.56 | 0.395 | 0.746 | 0.585 | 0.628 | 0.595 | 0.177 | 0.166 | 0.17 | 0.163 | 0.12 | 0.0936 | 0.102 | 0.11
4 | NCI-H441 | 0.587 | 0.511 | 0.518 | 0.548 | 0.689 | 0.485 | 0.663 | 0.583 | 0.879 | 0.772 | 0.885 | 0.674 | 0.69 | 0.581 | 0.625 | 0.513 | 0.943 | 0.57 | 0.681 | 0.738
5 | NCI-H460 | 1.21 | 0.879 | 0.708 | 0.353 | 0.449 | 0.415 | 0.325 | 0.619 | 1.02 | 0.725 | 0.654 | 0.862 | 0.728 | 0.532 | 0.47 | 0.666 | 0.384 | 0.393 | 0.12 | 0.277
6 | NCI-H520 | 0.995 | 0.863 | 0.706 | 0.554 | 0.348 | 0.339 | 0.293 | 0.233 | 0.712 | 0.633 | 0.57 | 0.292 | 0.24 | 0.219 | 0.258 | 0.197 | 0.491 | 0.33 | 0.364 | 0.313
7 | NCI-H596 | 1.15 | 1.13 | 1.05 | 1.14 | 0.588 | 0.646 | 0.702 | 0.747 | 0.606 | 0.669 | 0.605 | 0.756 | 0.747 | 0.71 | 0.497 | 0.609 | 0.826 | 0.869 | 0.937 | 0.92
8 | NCI-H647 | 0.966 | 0.946 | 1 | 1.17 | 0.459 | 0.492 | 0.368 | 0.163 | 0.624 | 0.531 | 0.562 | 0.343 | 0.264 | 0.193 | 0.215 | 0.157 | 0.259 | 0.212 | 0.408 | 0.235
9 | NCI-H650 | 1.12 | 0.84 | 0.659 | 0.763 | 0.355 | 0.428 | 0.347 | 0.329 | 0.391 | 0.501 | 0.383 | 0.428 | 0.558 | 0.509 | 0.5 | 0.408 | 0.713 | 0.667 | 0.623 | 0.696
10 | NCI-H661 | 0.606 | 0.675 | 0.734 | 0.747 | 0.845 | 0.75 | 0.708 | 0.71 | 0.826 | 0.796 | 0.809 | 0.883 | 1.05 | 0.832 | 0.787 | 0.862 | 0.36 | 0.346 | 0.351 | 0.336
11 | NCI-H727 | 0.255 | 0.326 | – | 0.259 | 0.696 | 0.69 | 0.649 | 0.764 | 1.43 | 1.05 | 0.972 | 1.13 | 0.364 | 0.336 | – | 0.299 | 0.648 | 0.568 | 0.654 | 0.578
12 | NCI-H838 | 0.969 | 0.918 | 0.716 | 0.87 | 0.871 | 0.711 | 0.543 | 0.556 | 0.757 | 0.675 | 0.65 | 0.733 | 0.346 | 0.303 | 0.261 | 0.274 | 0.256 | 0.249 | 0.255 | 0.281
13 | NCI-H1355 | 0.785 | 0.793 | 0.663 | 0.738 | 0.723 | 0.687 | 0.689 | 0.785 | 0.64 | 0.636 | 0.504 | 0.565 | 0.788 | 0.706 | 0.474 | 0.633 | 0.547 | 0.55 | 0.513 | 0.438
14 | NCI-H1395 | 0.979 | 1.05 | 0.695 | 1.03 | 0.421 | 0.463 | – | 0.39 | 1.08 | 0.616 | – | 0.731 | 0.461 | 0.39 | 0.397 | 0.415 | 0.69 | 0.689 | 0.697 | 0.799
15 | NCI-H1437 | 1.05 | 1.06 | 0.966 | 0.893 | 0.627 | 0.633 | 0.609 | 0.592 | 0.917 | 0.916 | 0.843 | 1.05 | 0.434 | 0.395 | 0.384 | 0.385 | 0.396 | 0.369 | 0.379 | 0.397
